Biological target: T1, FLT3 N841I (Homo sapiens, UniProt P36888, N841I)
T1 sequence (P36888 27-993 N841I): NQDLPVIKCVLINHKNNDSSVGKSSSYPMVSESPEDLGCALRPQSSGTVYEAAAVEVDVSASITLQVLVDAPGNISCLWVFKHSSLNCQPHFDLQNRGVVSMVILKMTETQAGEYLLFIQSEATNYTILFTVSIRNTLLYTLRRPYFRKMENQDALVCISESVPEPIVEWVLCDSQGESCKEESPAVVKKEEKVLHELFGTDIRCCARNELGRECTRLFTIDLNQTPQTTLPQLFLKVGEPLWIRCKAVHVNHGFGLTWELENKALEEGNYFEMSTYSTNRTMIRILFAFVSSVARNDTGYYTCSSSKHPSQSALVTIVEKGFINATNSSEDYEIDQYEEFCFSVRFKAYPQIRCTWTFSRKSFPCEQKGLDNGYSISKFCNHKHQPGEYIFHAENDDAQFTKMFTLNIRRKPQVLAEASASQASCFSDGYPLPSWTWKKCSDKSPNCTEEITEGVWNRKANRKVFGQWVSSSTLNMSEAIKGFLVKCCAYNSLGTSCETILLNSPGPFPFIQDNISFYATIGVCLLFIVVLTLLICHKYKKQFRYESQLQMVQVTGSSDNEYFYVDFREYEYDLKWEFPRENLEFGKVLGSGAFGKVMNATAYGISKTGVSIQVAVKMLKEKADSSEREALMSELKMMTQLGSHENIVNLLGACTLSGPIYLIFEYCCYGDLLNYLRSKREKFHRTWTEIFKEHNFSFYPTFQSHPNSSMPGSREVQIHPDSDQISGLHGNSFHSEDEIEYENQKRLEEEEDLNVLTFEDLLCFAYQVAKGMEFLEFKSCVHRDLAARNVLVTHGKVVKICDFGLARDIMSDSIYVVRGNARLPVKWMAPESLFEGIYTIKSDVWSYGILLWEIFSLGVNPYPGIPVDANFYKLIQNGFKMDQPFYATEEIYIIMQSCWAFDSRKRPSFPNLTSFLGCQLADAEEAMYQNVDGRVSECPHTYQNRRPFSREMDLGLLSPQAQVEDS
Assay: DiscoverX KINOMEscan active site-directed competition binding, FLT3 N841I
Conditions: Table 13; no ATP
Text: (§1) Kinase binding data were obtained for various exemplary compounds prepared according to Examples 1-8 using the DiscoverX KINOMEscan® active site-directed competition binding site-directed assay protocol described below. […] As a result, the data report thermodynamic interaction affinities (Kd values), rather than IC50 values that are dependent on ATP concentrations. The assay uses a DNA-tagged version of the protein kinase, and an immobilized ligand bound to a solid support. Compounds that directly or indirectly prevent kinase binding to the immobilized ligand reduce the amount of kinase captured on the solid support, which is detected using an ultra-sensitive qPCR method. Affinity constants reported from the assay have been reported to be independent of the immobilized ligand used that is coupled to the solid support (See supplemental information in Fabian, M. A. et. al., (2005) Nat. Biotechnol. 23, 329-336; Wodicka, L. M. et. al., (2010) Chem. Biol. 17, 1241-1249.)
Kinase-tagged T7 phage strains were prepared in an E. coli host derived from the BL21 strain. E. coli were grown to log-phase and infected with T7 phage and incubated with shaking at 32 °C until lysis. The lysates were centrifuged and filtered to remove cell debris. The remaining kinases were produced in HEK-293 cells and subsequently tagged with DNA for qPCR detection. Streptavidin-coated magnetic beads were treated with biotinylated small molecule ligands for 30 minutes at room temperature to generate affinity resins for kinase assays. The liganded beads were blocked with excess biotin and washed with blocking buffer (SeaBlock (Pierce), 1% BSA, 0.05% Tween 20, 1 mM DTT) to remove unbound ligand and to reduce non-specific binding. […] Test compounds were prepared as 111x stocks in 100% DMSO. Kds were determined using an 11-point 3-fold compound dilution series with three DMSO control points. All compounds for Kd measurements are distributed by acoustic transfer (non-contact dispensing) in 100% DMSO. The compounds were then diluted directly into the assays such that the final concentration of DMSO was 0.9%. All reactions were performed in polypropylene 384-well plates. Each was a final volume of 0.02 mL. The assay plates were incubated at room temperature with shaking for 1 hour and the affinity beads were washed with wash buffer (1×PBS, 0.05% Tween 20). The beads were then re-suspended in elution buffer (1×PBS, 0.05% Tween 20, 0.5 μM nonbiotinylated affinity ligand) and incubated at room temperature with shaking for 30 minutes. The kinase concentration in the eluates was measured by qPCR. Binding constants (Kds) were calculated with a standard dose-response curve using the Hill equation. The Hill Slope was set to −1. Curves were fitted using a non-linear least square fit with the Levenberg-Marquardt algorithm.
as §1, with “9-12” for “1-8”
Kinase-tagged T7 phage strains were prepared in an E. coli host derived from the BL21 strain. […]

| Structure (SMILES) | Kd [nM] |
| --- | --- |
| COc1cn2ncc(-c3nc(N[C@H]4CNCC[C@@H]4F)c(C#N)cc3F)c2nc1C1CC1 [Compound 7, 6-(5-cyclopropyl-6-methoxypyrazolo[1,5-a]pyrimidin-3-yl)-5-fluoro-2-(((3S,4S)-4-fluoropiperidin-3-yl)amino)nicotinonitrile] | < 0.17 |
| COc1cn2ncc(-c3nc(N[C@H]4CNCC[C@@H]4F)c(F)cc3F)c2nc1C(C)(C)O [Compound 13, 2-(3-(3,5-difluoro-6-(((3S,4S)-4-fluoropiperidin-3-yl)amino)pyridin-2-yl)-6-methoxypyrazolo[1,5-a]pyrimidin-5-yl)propan-2-ol] | 0.79 |
| COc1cn2ncc(-c3nc(N[C@H]4CNCC[C@@H]4F)c(C#N)cc3F)c2nc1C(C)(C)O [Compound 10, 5-fluoro-2-(((3S,4S)-4-fluoropiperidin-3-yl)amino)-6-(5-(2-hydroxypropan-2-yl)-6-methoxypyrazolo[1,5-a]pyrimidin-3-yl)nicotinonitrile] | 0.48 |

Same assay, conditions: Table 19; no ATP

| Kd [nM] | Structure (SMILES) |
| --- | --- |
| < 0.17 | COc1cn2ncc(-c3nc(N[C@@H]4CCCNC4)ncc3F)c2nc1C1CC1 [Compound 14a, (R)-4-(5-cyclopropyl-6-methoxypyrazolo[1,5-a]pyrimidin-3-yl)-5-fluoro-N-(piperidin-3-yl)pyrimidin-2-amine] |
| < 0.17 | COc1cn2ncc(-c3nc(N[C@H]4CNCC[C@@H]4F)ncc3F)c2nc1C1CC1 [Compound 15a, 4-(5-cyclopropyl-6-methoxypyrazolo[1,5-a]pyrimidin-3-yl)-5-fluoro-N-((3S,4S)-4-fluoropiperidin-3-yl)pyrimidin-2-amine] |

The remaining lines, values behind:

| Structure (SMILES) | Kd [nM] |
| --- | --- |
| COc1cn2ncc(-c3cncc(N[C@H]4CNCC[C@@H]4F)n3)c2nc1C1CC1 [Compound 12a, 6-(5-cyclopropyl-6-methoxypyrazolo[1,5-a]pyrimidin-3-yl)-N-((3S,4S)-4-fluoropiperidin-3-yl)pyrazin-2-amine] | 0.27 |
| COc1cn2ncc(-c3nc(N[C@H]4CNCC[C@@H]4F)ncc3F)c2nc1C(C)(C)O [Compound 6a, 2-(3-(5-fluoro-2-(((3S,4S)-4-fluoropiperidin-3-yl)amino)pyrimidin-4-yl)-6-methoxypyrazolo[1,5-a]pyrimidin-5-yl)propan-2-ol] | 0.7 |
| COc1cn2ncc(-c3ccnc(N[C@H]4CNCC[C@@H]4F)n3)c2nc1C1CC1 [Compound 7a, 4-(5-cyclopropyl-6-methoxypyrazolo[1,5-a]pyrimidin-3-yl)-N-((3S,4S)-4-fluoropiperidin-3-yl)pyrimidin-2-amine] | 0.62 |

— US20260374773A1, “MULTI-CYCLIC IRAK AND FLT3 INHIBITING COMPOUNDS AND USES THEREOF” (CHILDREN'S HOSPITAL MEDICAL CENTER, priority 2022, published 2026)
